# From patent publication US5679787A, “Process for isomerization of compound of aldose structure into compound of ketose structure, and isomerization agent or accelerator used therein” (priority 1992, dated 1997)
# How the values were obtained:
# [1] = Isomerization test at pH 10 (Example 4), maltose; conditions: pH 10 with aqueous sodium hydroxide, 80° C., 3 hours; blank 12.59
# Method: (§1) The same isomerization test as in Example 2 was conducted with slight modifications.
# (§2) That is, 200 μl of one of various saccharide solutions and 200 μl of one of various organogermanium compound solutions were placed in a small test tube. The mixture was adjusted to pH 10 with an aqueous sodium hydroxide solution, after which the tube was placed in a water bath of 80° C. for a reaction. 3 hours later, the reaction was terminated and the amount of each saccharide isomerized was determined by high-performance liquid chromatography using 7A (a column) manufactured by Shimadzu Corp.
# [2] = Isomerization test at pH 10 (Example 4), ribose; conditions: pH 10 with aqueous sodium hydroxide, 80° C., 3 hours; blank 2.89
# Method: as §1, §2
# [3] = Isomerization without enzyme (Example 3), arabinose; conditions: remark (2):, initial pH 10.0-10.6
# [4] = Isomerization test at pH 10 (Example 4), galactose; conditions: pH 10 with aqueous sodium hydroxide, 80° C., 3 hours; blank 7.60
# Method: as §1, §2
# [5] = Isomerization test at pH 10 (Example 4), mannose; conditions: pH 10 with aqueous sodium hydroxide, 80° C., 3 hours; blank 12.48
# Method: as §1, §2
# [6] = Toxicity, LD50 on oral administration to mice; conditions: mouse, in vivo, orally administered to mice
# Description: (§3) The organogermanium compound used in the present invention has very low toxicity.
# [7] = Isomerization without enzyme (Example 3), maltose; conditions: remark (3): reaction time 6 h, initial pH 10.0-11.0
# glucose isomerase = experiment: Enzymatic isomerization of glucose into fructose in presence of organogermanium compound (Example 1); type: biochemical, Streptomyces griseofuscus S-41; conditions: 60° C., pH 8.0, substrate solution 40% glucose and 1.2M organogermanium compound, blank 50%
# Method: A solution containing 40% glucose and 1.2M organogermanium compound was prepared according to the following procedure. 0.8 g of anhydrous glucose was dissolved in 0.8 ml of deionized water. To the solution was added, in small portions, 0.407 g of the organogermanium compound (1) as an isomerization accelerator of the present invention [a compound represented by formula (II) wherein n=1, R1 =R2 =R3 and X1 =OH] while the pH of the solution was maintained at very weak alkalinity, to completely dissolve the compound in the solution. Thereto was added 4.9 mg of magnesium sulfate, and the pH of the resulting mixture was adjusted to 8.0. Then, deionized water was added to make the total volume 2.0 ml, whereby a substrate solution was prepared.
# Two other substrate solutions containing the organogermanium compounds (18) [a compound represented by formula (II) wherein n=1, R1 =R2 =H, R3 =NH2 and X1 =OH] and (23) [a compound represented by formula (II) wherein n=1, R1 =H, R2 =C6 H5, R3 =NH2 and X1 =OH], respectively, were prepared in the same manner as above except that the organogermanium compounds (18) and (23) were used in amounts of 0.443 g and 0.638 g, respectively (these amounts corresponded to 1.2M of germanium).
# An isomerization enzyme (glucose isomerase) extracted from the cells of Streptomyces griseofuscus S-41 was purified according to a known method using an ion exchange column, a gel filtration column or the like, until a single band was obtained electrophoretically. The resulting purified enzyme was used as a standard enzyme.
# In a small test tube were placed 0.7 ml of the above substrate solution, 0.1 ml of a 200 mM MOPS buffer solution (pH 8.0) and 0.2 ml of a solution containing the above-prepared standard enzyme (5.69 mg/ml). […] The amount of formed fructose in the microvial was determined by high-performance liquid chromatography using a column [LC7A, SCR-101 (N) manufactured by Shimadzu Corp.] to examine the change with time, of ratio of isomerization of glucose into fructose.
# [8] = Isomerization without enzyme (Example 3), glucose; conditions: remark (1): initial pH 8.0-8.53
# Method: 200 μl of the 14% or 28% glucose solution and 200 μl of the organogermanium compound solution (pH 8.00 or 8.53) were placed in a small test tube. Also, 200 μl of the 14% or 28% glucose solution and 200 μl of the weakly alkaline electrolytic water were placed in a small test tube. Each test tube was thoroughly shaken and then placed in a water bath of 80° C. to give rise to a reaction. […] Thereafter, the mixture was diluted 100-fold with deionized water to determine the amount of formed fructose and the amount of residual glucose by high-performance liquid chromatography using 7A (a column) manufactured by Shimadzu Corp. […]
# [9] = Toxicity, LD50 on oral administration to rats; conditions: rat, in vivo, orally administered to rats
# Description: as §3
# [10] = Isomerization without enzyme (Example 3), mannose; conditions: remark (2): reaction time 6 h, initial pH 10.0-10.6
# [11] = Isomerization test at pH 10 (Example 4), xylose; conditions: pH 10 with aqueous sodium hydroxide, 80° C., 3 hours; blank 5.59
# Method: as §1, §2
# [12] = Isomerization test at pH 10 (Example 4), arabinose; conditions: pH 10 with aqueous sodium hydroxide, 80° C., 3 hours; blank 2.75
# Method: as §1, §2
# [13] = Isomerization without enzyme (Example 3), lactose; conditions: remark (3): reaction time 6 h, initial pH 10.0-11.0
# [14] = Isomerization without enzyme (Example 3), ribose; conditions: NaOH; remark (2): reaction time 6 h, initial pH 10.0-10.6; blank 3.9-19.5%
# [15] = Isomerization without enzyme (Example 3), xylose; conditions: remark (2): reaction time 6 h, initial pH 10.0-10.6
# Method: [The procedure below names another target; the source says it served here with some conditions changed.] 200 μl of the 14% or 28% glucose solution and 200 μl of the organogermanium compound solution (pH 8.00 or 8.53) were placed in a small test tube. Also, 200 μl of the 14% or 28% glucose solution and 200 μl of the weakly alkaline electrolytic water were placed in a small test tube. Each test tube was thoroughly shaken and then placed in a water bath of 80° C. to give rise to a reaction. 1-3 hours later, 50 μl of the reaction mixture was added to 50 μl of 0.5N HClO4 to terminate the reaction. Thereafter, the mixture was diluted 100-fold with deionized water to determine the amount of formed fructose and the amount of residual glucose by high-performance liquid chromatography using 7A (a column) manufactured by Shimadzu Corp.
# Other compounds represented by formula (I) were subjected to 3-hour isomerization in the same manner as in Example 2.
# [16] = electrolytic water, blank 0.4-1.2%
# [17] = electrolytic water, blank 0-0.4%
structure (smiles),measurement,setting,value
O=C(O)C[CH2][Ge](=[O])[O][Ge](=[O])[CH2]CC(=O)O [Compound 1],Isomerization (%) Maltose,[1],78.91%
same,Isomerization (%) Ribose,[2],27.76%
same,Isomerization ratio Arabinose NaOH,"[3]; NaOH, blank 3.9-19.5%",22.6%
same,Isomerization ratio Arabinose Electrolytic water,[3]; [16],12.6%
same,Isomerization (%) Galactose,[4],38.67%
same,Isomerization (%) Mannose,[5],37.23%
same,LD50,[6],≥ 6000 mg/kg
same,Isomerization ratio Maltose NaOH,"[7]; NaOH, blank 34.0-38.6%",68.7%
same,Isomerization ratio Maltose Electrolytic water,[7]; [17],43.2%
same,isomerization ratio in equilibrium,glucose isomerase,75%
same,Isomerization ratio Glucose NaOH,"[8]; NaOH, blank 32.3%",98.9%
same,Isomerization ratio Glucose Electrolytic water,"[8]; electrolytic water, blank 2.1-3.1%",94.7%
same,LD50,[9],≥ 10000 mg/kg
same,Isomerization ratio Mannose NaOH,"[10]; NaOH, blank 3.9-19.5%",24.3%
same,Isomerization ratio Mannose Electrolytic water,[10]; [16],13.1%
same,Isomerization (%) Xylose,[11],40.66%
same,Isomerization (%) Arabinose,[12],20.87%
same,Isomerization ratio Lactose NaOH,"[13]; NaOH, blank 34.0-38.6%",70.3%
same,Isomerization ratio Lactose Electrolytic water,[13]; [17],58.3%
same,Isomerization ratio Ribose NaOH,[14],44.7%
same,Isomerization ratio Xylose NaOH,"[15]; NaOH, blank 3.9-19.5%",30.3%
same,Isomerization ratio Xylose Electrolytic water,[15]; [16],19.6%
